Test systems include A498; CCRF-CEM; HCC 2998; HCT-15; HL-60; K562; NCI-H226; NCI-H23; NCI-H460; NCI-H522; OVCAR-4; OVCAR-8; RPMI-8226; RXF 393; SF-539; SK-MEL-28; SK-MEL-5; SNB-19; UACC-257; UO-31.
Holding throughout (test): DTP human tumour cell line panel, 48 h

Molecules are shown by their SMILES.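 Compound exposure: 48 hours, 5 concentrations, 96-well plates. GI50 marks 50% less growth.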 Activity calls are given as the source filed them. Cut-off read from the data, not from the text of the source: active = GI50 up to about 1.1 µM and inactive = higher.

By GI50 is commonly meant the concentration that inhibits growth by half.

`C=CS(=O)(=O)c1c2cc(OC)ccc2nc2ccc(OC)cc12`: the GI50 with A498 is 12.7 µM (inactive); with CCRF-CEM, 3.22 µM (inactive); with HCC 2998, 7.91 µM (inactive); with HCT-15, 3.31 µM; in the assay with HL-60 it was 7.96 µM (inactive); with K562, 4.39 µM (inactive). The GI50 in the assay with NCI-H226 was 15.6 µM (inactive); with NCI-H23 it was 4.02 µM (inactive); in the assay on NCI-H460, 5.12 µM (inactive); with NCI-H522, 1.73 µM (inactive); in the assay with OVCAR-4, 13.1 µM (inactive); in the assay with OVCAR-8 it was 3.6 µM (inactive). For the same compound, the GI50 in the assay with RPMI-8226 was 2.37 µM (inactive); in the assay on RXF 393, 3.99 µM (inactive); in the assay on SF-539 it was 2.51 µM (inactive); with SK-MEL-28, 7.98 µM (inactive); with SK-MEL-5 it was 14.1 µM (inactive); in the assay on SNB-19, 12.6 µM (inactive). Further, the GI50 is 7.53 µM (inactive) with UACC-257 and 3.08 µM (inactive) in the assay on UO-31.

Turning to `CN(C)CCNC(=O)c1cccc2[nH]c(-c3ccc(Cl)cc3)nc12`, the GI50 is 10.7 µM (inactive) in the assay on A498; 6.21 µM (inactive) in the assay on CCRF-CEM; 4.05 µM (inactive) with HCC 2998; 4.99 µM in the assay on HCT-15; 2.77 µM (inactive) in the assay on HL-60; 2.93 µM (inactive) with K562. For the same compound, the GI50 in the assay on NCI-H226 was 4.59 µM (inactive); with NCI-H23, 7.41 µM (inactive); in the assay on NCI-H460, 3.12 µM (inactive); in the assay with NCI-H522, 6.14 µM (inactive); in the assay with OVCAR-4 it was 7.24 µM (inactive); with OVCAR-8 it was 4.61 µM (inactive). The GI50 is 2.76 µM (inactive) with RPMI-8226; 8.57 µM (inactive) in the assay with RXF 393; 4.65 µM (inactive) in the assay on SF-539; 17.1 µM (inactive) in the assay on SK-MEL-28; 4.8 µM (inactive) in the assay on SK-MEL-5; 7.87 µM (inactive) in the assay with SNB-19. Besides, the GI50 was 7.78 µM (inactive) in the assay with UACC-257 and 2.69 µM (inactive) with UO-31.

Take `C=CCOC1=C(OCC=C)C(C2COC(C)(C)O2)OC1=O` (stereo not given): the GI50 in the assay with A498 was > 100 µM (inactive); in the assay with CCRF-CEM, 29.4 µM (inactive); in the assay on HCC 2998 it was > 100 µM (inactive); in the assay on HCT-15, greater than 100 µM; in the assay on HL-60, 45 µM (inactive); in the assay on K562, 75.5 µM (inactive). For the same compound, the GI50 in the assay on NCI-H226 was > 100 µM (inactive); in the assay with NCI-H23, > 100 µM (inactive); in the assay with NCI-H460 it was > 100 µM (inactive); in the assay on NCI-H522, 22.1 µM (inactive); with OVCAR-4, > 100 µM (inactive); with OVCAR-8, > 100 µM (inactive). Also, the GI50 is 45.9 µM (inactive) with RPMI-8226; > 100 µM (inactive) with RXF 393; > 100 µM (inactive) with SF-539; > 100 µM (inactive) in the assay with SK-MEL-28; > 100 µM (inactive) in the assay with SK-MEL-5; > 100 µM (inactive) in the assay with SNB-19. Also, the GI50 in the assay on UACC-257 and in the assay on UO-31 was > 100 µM (inactive) throughout.

Turning to `Fc1ccc(C(OCCN2CCC3CCC(C2)N3Cc2cc3ccccc3[nH]2)c2ccc(F)cc2)cc1` (stereo not given), the GI50 is 1.47 µM (inactive) in the assay on A498; 1.71 µM (inactive) with CCRF-CEM; 1.63 µM (inactive) with HCC 2998; 1.15 µM in the assay on HCT-15; 1.58 µM (inactive) in the assay with HL-60; 1.13 µM (inactive) in the assay on K562. The GI50 is 1.83 µM (inactive) with NCI-H226; 1.58 µM (inactive) with NCI-H23; 1.78 µM (inactive) in the assay with NCI-H460; 1.47 µM (inactive) in the assay on NCI-H522; 1.95 µM (inactive) with OVCAR-4; 1.73 µM (inactive) with OVCAR-8. The GI50 with RPMI-8226 was 1.42 µM (inactive); in the assay on RXF 393 it was 1.59 µM (inactive); in the assay with SF-539 it was 1.59 µM (inactive); in the assay on SK-MEL-28, 1.61 µM (inactive); in the assay with SK-MEL-5, 1.72 µM (inactive); with SNB-19, 2.54 µM (inactive). Also, the GI50 is 1.95 µM (inactive) with UACC-257 and 2 µM (inactive) in the assay with UO-31.

For the compound `O=C1C(Cl)=C(c2ccc([N+](=O)[O-])cc2)C(=O)c2c(O)cccc21`, the GI50 with A498 was 3.08 µM (inactive); in the assay on CCRF-CEM, 1.55 µM (inactive); with HCC 2998, 2.26 µM (inactive); in the assay on HCT-15 it was 0.614 µM; in the assay with HL-60, 3.48 µM (inactive); in the assay on K562 it was 1.11 µM (active). The GI50 was 1.73 µM (inactive) with NCI-H226; 1.67 µM (inactive) in the assay with NCI-H23; 2.3 µM (inactive) with NCI-H460; 0.292 µM (active) in the assay on NCI-H522; 1.93 µM (inactive) with OVCAR-4; 1.39 µM (inactive) in the assay on OVCAR-8. Besides, the GI50 in the assay on RPMI-8226 was 0.379 µM (active); in the assay with RXF 393, 0.678 µM (active); in the assay on SF-539 it was 0.341 µM (active); in the assay with SK-MEL-28, 1.26 µM (inactive); in the assay on SK-MEL-5 it was 1.87 µM (inactive); in the assay with SNB-19 it was 1.45 µM (inactive). Further, the GI50 in the assay on UACC-257 was 1.9 µM (inactive); in the assay with UO-31 it was 1.92 µM (inactive).

Take `O=C1CCCCC[C@]12SC[C@H]1CON=C12`: the GI50 with A498 was 7.16 µM (inactive); in the assay on CCRF-CEM, 21.9 µM (inactive); in the assay on HCC 2998, 29.1 µM (inactive); in the assay with HCT-15 it was 31.3 µM; with HL-60, 25.9 µM (inactive); in the assay on K562 it was 42.6 µM (inactive). For the same compound, the GI50 in the assay with NCI-H226 was > 100 µM (inactive); in the assay with NCI-H23, 94.8 µM (inactive); in the assay on NCI-H460, 39.1 µM (inactive); in the assay with NCI-H522 it was 22.6 µM (inactive); with OVCAR-4 it was 73.8 µM (inactive); in the assay on OVCAR-8 it was 65.8 µM (inactive). Moreover, the GI50 is 27.2 µM (inactive) with RPMI-8226; 21.1 µM (inactive) in the assay with RXF 393; 41.3 µM (inactive) in the assay on SF-539; 27.8 µM (inactive) in the assay on SK-MEL-28; > 100 µM (inactive) in the assay on SK-MEL-5; > 100 µM (inactive) with SNB-19. The results for the GI50 with UACC-257 and in the assay with UO-31 were 78.2 µM (inactive) and 26.9 µM (inactive), respectively.

As for `O=C1NCN(c2ccccc2)C12CCN(CCCN1CCN(CCOC(c3ccc(F)cc3)c3ccc(F)cc3)CC1)CC2`, the GI50 in the assay with A498 was 1.84 µM (inactive); in the assay on CCRF-CEM, 3.31 µM (inactive); in the assay on HCC 2998, 1.51 µM (inactive); with HCT-15, 2.23 µM; in the assay with HL-60, 1.48 µM (inactive); with K562, 0.91 µM (active). The GI50 with NCI-H226 is 1.86 µM (inactive); in the assay with NCI-H23 it was 3.51 µM (inactive); in the assay with NCI-H460 it was 2 µM (inactive); in the assay with NCI-H522 it was 1.9 µM (inactive); with OVCAR-4, 2.92 µM (inactive); in the assay with OVCAR-8, 2.15 µM (inactive). For the same compound, the GI50 was 2.04 µM (inactive) with RPMI-8226; 1.04 µM (active) in the assay with RXF 393; 1.71 µM (inactive) in the assay on SF-539; 2.47 µM (inactive) with SK-MEL-28; 1.69 µM (inactive) with SK-MEL-5; 2.72 µM (inactive) in the assay on SNB-19. Besides, the GI50 with UACC-257 is 1.85 µM (inactive); in the assay on UO-31 it was 1.74 µM (inactive).

Consider `COc1cc(C2(c3ncc[nH]3)SSSCC2O)ccc1O` (stereo not given), for which the GI50 is 79.3 µM (inactive) in the assay on A498; 11.9 µM (inactive) with CCRF-CEM; 27.9 µM (inactive) with HCC 2998; 33.1 µM with HCT-15; 29.6 µM (inactive) in the assay on HL-60; 23.4 µM (inactive) in the assay with K562. Also, the GI50 was 66.4 µM (inactive) in the assay with NCI-H226; 60.7 µM (inactive) with NCI-H23; > 46.2 µM (inactive) in the assay with NCI-H460; 29.4 µM (inactive) in the assay with NCI-H522; 22.2 µM (inactive) in the assay with OVCAR-4; 36.9 µM (inactive) with OVCAR-8. The GI50 in the assay with RPMI-8226 was 22.6 µM (inactive); in the assay with RXF 393, 30.1 µM (inactive); in the assay with SF-539, > 59 µM (inactive); in the assay with SK-MEL-28 it was > 100 µM (inactive); in the assay with SK-MEL-5, 11.7 µM (inactive); in the assay with SNB-19, > 87.7 µM (inactive). In addition, the GI50 in the assay on UACC-257 was 18.4 µM (inactive); in the assay with UO-31, 65.9 µM (inactive).

Regarding `Cc1nc(-c2cccnc2)sc1C(=O)CC(=O)C(=O)Nc1cccc(NC(=O)C(=O)CC(=O)c2sc(-c3cccnc3)nc2C)n1`, the GI50 was > 100 µM (inactive) in the assay with A498; > 100 µM (inactive) in the assay with CCRF-CEM; > 100 µM (inactive) with HCC 2998; greater than 100 µM in the assay with HCT-15; > 100 µM (inactive) with HL-60; > 100 µM (inactive) in the assay on K562. Further, the GI50 in the assay on NCI-H226, with NCI-H23, with NCI-H460, in the assay on NCI-H522, in the assay with OVCAR-4 and in the assay on OVCAR-8 was > 100 µM (inactive) in each case. Moreover, the GI50 in the assay with RPMI-8226, with RXF 393, in the assay on SF-539, in the assay with SK-MEL-28, in the assay with SK-MEL-5 and in the assay with SNB-19 was > 100 µM (inactive) in each case. Further, the GI50 in the assay on UACC-257 and in the assay with UO-31 was > 100 µM (inactive) throughout.

As for `O=C1C2=C(C3=NCCc4c[nH]c1c43)c1c(Br)cc(Br)cc1CCN2`, the GI50 was 11.2 µM (inactive) with A498; 2.58 µM (inactive) in the assay with CCRF-CEM; 2.01 µM (inactive) in the assay with HCC 2998; 2.21 µM with HCT-15; 1.62 µM (inactive) with HL-60; 2.68 µM (inactive) in the assay with K562. Further, the GI50 is 4.41 µM (inactive) with NCI-H226; 1.79 µM (inactive) in the assay with NCI-H23; 3.03 µM (inactive) in the assay with NCI-H460; 1.66 µM (inactive) in the assay on NCI-H522; 2.22 µM (inactive) in the assay on OVCAR-4; 2.98 µM (inactive) in the assay on OVCAR-8. For the same compound, the GI50 in the assay on RPMI-8226 is 1.24 µM (inactive); in the assay with RXF 393, 4.75 µM (inactive); with SF-539, 3.42 µM (inactive); with SK-MEL-28, 8.49 µM (inactive); in the assay with SK-MEL-5, 1.62 µM (inactive); with SNB-19 it was 11.2 µM (inactive). Further, the GI50 with UACC-257 was 1.5 µM (inactive); in the assay with UO-31 it was 6.22 µM (inactive).
